Data as given in ChEMBL document CHEMBL3885861, “Open TG-GATES”.

Species: Rattus norvegicus
Assay: Open TG-GATES - Regimen: Single
Format: toxicity, organism-based, Sprague-Dawley
Parameters: regimen Single, gender Male, age 6 weeks
Settings: in vivo, po, 300 mg/kg, route gavage, dose level Middle; for APTT / Bas / Eos / Fbg / Hb / Ht / Lym / MCH / MCHC / MCV / Mono / Neu / PT / Plat / RBC / Ret / WBC: tissue Blood; for KIDNEY_L / KIDNEY_R / KIDNEY_TOTAL: tissue Kidney; for LIVER: tissue Liver; for A/G / ALP / ALT / AST / BUN / CRE / Ca / Cl / DBIL / GLC / IP / K / LDH / Na / PL / RALB / TBIL / TC / TG / TP / gamma-GTP: tissue Plasma

## Cc1nnc2n1-c1ccc(Cl)cc1C(c1ccccc1Cl)=NC2 [TRIAZOLAM]
3 h
  TERMINAL_BW: 190.9 g
  APTT: 16.4 s
  Bas: 0.2%
  Eos: 1%
  Fbg: 270.4 mg/dL
  Hb: 13.9 g/dL
  Ht: 42.3%
  Lym: 73.8%
  MCH: 21 pg
  MCHC: 33%
  MCV: 63.6 fL
  Mono: 3%
  Neu: 21.4%
  PT: 13.4 s
  Plat: 117 x10_4/uL
  RBC: 665.8 x10_4/ul
  Ret: 9%
  WBC: 63.2 x10_2/uL
  KIDNEY_L: 0.8 g
  KIDNEY_R: 0.8 g
  KIDNEY_TOTAL: 1.7 g
  LIVER: 8.6 g
  A/G: 0.9
  ALP: 1451.2 IU/L
  ALT: 40.2 IU/L
  AST: 71 IU/L
  BUN: 9.6 mg/dL
  CRE: 0.1 mg/dL
  Ca: 11.3 mg/dL
  Cl: 103.2 meq/L
  DBIL: 0.008 mg/dL
  GLC: 189 mg/dL
  IP: 10.7 mg/dL
  K: 4.2 meq/L
  LDH: 79.4 IU/L
  Na: 141.4 meq/L
  PL: 169.4 mg/dL
  RALB: 2.5 g/dL
  TBIL: 0.066 mg/dL
  TC: 90.4 mg/dL
  TG: 60.8 mg/dL
  TP: 5.2 g/dL
  gamma-GTP: 1.8 IU/L
6 h
  TERMINAL_BW: 191.6 g
  APTT: 17.4 s
  Bas: 0%
  Eos: 0.4%
  Fbg: 282.8 mg/dL
  Hb: 13.8 g/dL
  Ht: 42.4%
  Lym: 77.2%
  MCH: 20.5 pg
  MCHC: 32.6%
  MCV: 63 fL
  Mono: 2.4%
  Neu: 18.8%
  PT: 13.5 s
  Plat: 123.3 x10_4/uL
  RBC: 674.2 x10_4/ul
  Ret: 9.2%
  WBC: 77.5 x10_2/uL
  KIDNEY_L: 0.9 g
  KIDNEY_R: 0.9 g
  KIDNEY_TOTAL: 1.8 g
  LIVER: 8.3 g
  A/G: 0.9
  ALP: 1395 IU/L
  ALT: 35.6 IU/L
  AST: 66.6 IU/L
  BUN: 10.2 mg/dL
  CRE: 0.1 mg/dL
  Ca: 11.2 mg/dL
  Cl: 103 meq/L
  DBIL: 0.01 mg/dL
  GLC: 183.4 mg/dL
  IP: 10.9 mg/dL
  K: 4.1 meq/L
  LDH: 63.2 IU/L
  Na: 141.8 meq/L
  PL: 147.6 mg/dL
  RALB: 2.5 g/dL
  TBIL: 0.068 mg/dL
  TC: 81.2 mg/dL
  TG: 37.6 mg/dL
  TP: 5.3 g/dL
  gamma-GTP: 1 IU/L
9 h
  TERMINAL_BW: 193.6 g
  APTT: 16.7 s
  Bas: 0%
  Eos: 0.8%
  Fbg: 279.6 mg/dL
  Hb: 13.5 g/dL
  Ht: 41.2%
  Lym: 74%
  MCH: 21.4 pg
  MCHC: 32.8%
  MCV: 65.5 fL
  Mono: 2.2%
  Neu: 22%
  PT: 13.5 s
  Plat: 121.1 x10_4/uL
  RBC: 629.6 x10_4/ul
  Ret: 9.5%
  WBC: 87.2 x10_2/uL
  KIDNEY_L: 0.9 g
  KIDNEY_R: 0.8 g
  KIDNEY_TOTAL: 1.7 g
  LIVER: 7.6 g
  A/G: 0.9
  ALP: 1488.6 IU/L
  ALT: 32 IU/L
  AST: 65.2 IU/L
  BUN: 10 mg/dL
  CRE: 0.2 mg/dL
  Ca: 11 mg/dL
  Cl: 104.4 meq/L
  DBIL: 0.01 mg/dL
  GLC: 188 mg/dL
  IP: 10.6 mg/dL
  K: 4.4 meq/L
  LDH: 57.4 IU/L
  Na: 141.2 meq/L
  PL: 144.2 mg/dL
  RALB: 2.4 g/dL
  TBIL: 0.058 mg/dL
  TC: 74.2 mg/dL
  TG: 49.4 mg/dL
  TP: 5.1 g/dL
  gamma-GTP: 1.2 IU/L
24 h
  TERMINAL_BW: 207.4 g
  APTT: 28.1 s
  Bas: 0%
  Eos: 1%
  Fbg: 263.2 mg/dL
  Hb: 13.5 g/dL
  Ht: 40.8%
  Lym: 74.8%
  MCH: 21 pg
  MCHC: 33%
  MCV: 63.6 fL
  Mono: 2.6%
  Neu: 21%
  PT: 13.3 s
  Plat: 127 x10_4/uL
  RBC: 643.6 x10_4/ul
  Ret: 8%
  WBC: 94.8 x10_2/uL
  KIDNEY_L: 0.9 g
  KIDNEY_R: 0.9 g
  KIDNEY_TOTAL: 1.8 g
  LIVER: 9.2 g
  A/G: 0.9
  ALP: 1802.4 IU/L
  ALT: 44.4 IU/L
  AST: 66.2 IU/L
  BUN: 11.8 mg/dL
  CRE: 0.2 mg/dL
  Ca: 11.3 mg/dL
  Cl: 102.8 meq/L
  DBIL: 0.018 mg/dL
  GLC: 180.2 mg/dL
  IP: 9.2 mg/dL
  K: 4.5 meq/L
  LDH: 73.6 IU/L
  Na: 140.8 meq/L
  PL: 155.2 mg/dL
  RALB: 2.6 g/dL
  TBIL: 0.058 mg/dL
  TC: 77.6 mg/dL
  TG: 88 mg/dL
  TP: 5.4 g/dL
  gamma-GTP: 1 IU/L
